# Reference: patent US11959086B2, “Dual transit peptides for targeting polypeptides” (BASF AGRO B.V., priority 2016, dated 2024)
# Legend:
# Test in all cases: Herbicide injury evaluation of Arabidopsis plants, greenhouse
# Type in all cases: in vivo
# [1] = system: transgenic Arabidopsis thaliana, transgene SEQ ID NO 128; details: Table 3, scale 0-100
# [2] = system: transgenic Arabidopsis thaliana, transgene SEQ ID NO 117; details: Table 3, scale 0-100
# [3] = system: Wildtype/non-transgenic Arabidopsis thaliana; details: scale 0-100
# [4] = system: transgenic Arabidopsis thaliana, transgene SEQ ID NO 121; details: Table 3, scale 0-100
# [5] = system: transgenic Arabidopsis thaliana, transgene SEQ ID NO 120; details: Table 4, scale 0-100
# [6] = system: transgenic Arabidopsis thaliana, transgene SEQ ID NO 118; details: scale 0-100
smiles,measurement,setting,value
"C#CCN1C(=O)COc2cc(F)c(N3C(=O)C4=C(CCCC4)C3=O)cc21 [Flumioxazin, flumioxazin]",Herbicide injury evaluation 14 days after herbicide treatment,"[1]; SEQ ID NO 128 D, 140 g ai/ha + 1% MSO",100
same,Herbicide injury evaluation 14 days after herbicide treatment,"[1]; SEQ ID NO 128 D, 280 g ai/ha + 1% MSO",94
same,Herbicide injury evaluation 14 days after herbicide treatment,"[1]; SEQ ID NO 128 D, 420 g ai/ha + 1% MSO",93
same,Herbicide injury evaluation 14 days after herbicide treatment,"[1]; SEQ ID NO 128 E, 140 g ai/ha + 1% MSO",93
same,Herbicide injury evaluation 14 days after herbicide treatment,"[1]; SEQ ID NO 128 E, 280 g ai/ha + 1% MSO",99
same,Herbicide injury evaluation 14 days after herbicide treatment,"[1]; SEQ ID NO 128 E, 420 g ai/ha + 1% MSO",100
same,Herbicide injury evaluation 14 days after herbicide treatment,"[2]; SEQ ID NO 117 C, 140 g ai/ha + 1% MSO",94
same,Herbicide injury evaluation 14 days after herbicide treatment,"[2]; SEQ ID NO 117 C, 280 g ai/ha + 1% MSO",95
same,Herbicide injury evaluation 14 days after herbicide treatment,"[2]; SEQ ID NO 117 C, 420 g ai/ha + 1% MSO",95
same,Herbicide injury evaluation 14 days after herbicide treatment,"[2]; SEQ ID NO 117 I, 140 g ai/ha + 1% MSO",90
same,Herbicide injury evaluation 14 days after herbicide treatment,"[2]; SEQ ID NO 117 I, 280 g ai/ha + 1% MSO",94
same,Herbicide injury evaluation 14 days after herbicide treatment,"[2]; SEQ ID NO 117 I, 420 g ai/ha + 1% MSO",97
same,Herbicide injury evaluation 14 days after herbicide treatment,"[3]; Table 3, 140 g ai/ha + 1% MSO",100
same,Herbicide injury evaluation 14 days after herbicide treatment,"[3]; Table 3, 280 g ai/ha + 1% MSO",100
same,Herbicide injury evaluation 14 days after herbicide treatment,"[3]; Table 3, 420 g ai/ha + 1% MSO",100
same,Herbicide injury evaluation 14 days after herbicide treatment,"[3]; Table 4, 140 g ai/ha + 1% MSO",100
same,Herbicide injury evaluation 14 days after herbicide treatment,"[3]; Table 4, 280 g ai/ha + 1% MSO",100
same,Herbicide injury evaluation 14 days after herbicide treatment,"[3]; Table 4, 420 g ai/ha + 1% MSO",100
same,Herbicide injury evaluation 14 days after herbicide treatment,"[4]; SEQ ID NO 121 G, 140 g ai/ha + 1% MSO",100
same,Herbicide injury evaluation 14 days after herbicide treatment,"[4]; SEQ ID NO 121 G, 280 g ai/ha + 1% MSO",100
same,Herbicide injury evaluation 14 days after herbicide treatment,"[4]; SEQ ID NO 121 G, 420 g ai/ha + 1% MSO",100
same,Herbicide injury evaluation 14 days after herbicide treatment,"[4]; SEQ ID NO 121 H, 140 g ai/ha + 1% MSO",100
same,Herbicide injury evaluation 14 days after herbicide treatment,"[4]; SEQ ID NO 121 H, 280 g ai/ha + 1% MSO",100
same,Herbicide injury evaluation 14 days after herbicide treatment,"[4]; SEQ ID NO 121 H, 420 g ai/ha + 1% MSO",100
same,Herbicide injury evaluation 14 days after herbicide treatment,"[5]; SEQ ID NO 120 J, 140 g ai/ha + 1% MSO",95
same,Herbicide injury evaluation 14 days after herbicide treatment,"[5]; SEQ ID NO 120 J, 280 g ai/ha + 1% MSO",85
same,Herbicide injury evaluation 14 days after herbicide treatment,"[5]; SEQ ID NO 120 J, 420 g ai/ha + 1% MSO",95
same,Herbicide injury evaluation 14 days after herbicide treatment,"[5]; SEQ ID NO 120 M, 140 g ai/ha + 1% MSO",75
same,Herbicide injury evaluation 14 days after herbicide treatment,"[5]; SEQ ID NO 120 M, 280 g ai/ha + 1% MSO",98
same,Herbicide injury evaluation 14 days after herbicide treatment,"[5]; SEQ ID NO 120 M, 420 g ai/ha + 1% MSO",98
same,Herbicide injury evaluation 14 days after herbicide treatment,"[6]; Table 3, SEQ ID NO 118 Q, 140 g ai/ha + 1% MSO",48
same,Herbicide injury evaluation 14 days after herbicide treatment,"[6]; Table 3, SEQ ID NO 118 Q, 280 g ai/ha + 1% MSO",60
same,Herbicide injury evaluation 14 days after herbicide treatment,"[6]; Table 3, SEQ ID NO 118 Q, 420 g ai/ha + 1% MSO",60
same,Herbicide injury evaluation 14 days after herbicide treatment,"[6]; Table 3, SEQ ID NO 118 R, 140 g ai/ha + 1% MSO",23
same,Herbicide injury evaluation 14 days after herbicide treatment,"[6]; Table 3, SEQ ID NO 118 R, 280 g ai/ha + 1% MSO",28
same,Herbicide injury evaluation 14 days after herbicide treatment,"[6]; Table 3, SEQ ID NO 118 R, 420 g ai/ha + 1% MSO",28
same,Herbicide injury evaluation 14 days after herbicide treatment,"[6]; Table 4, SEQ ID NO 118 Q, 140 g ai/ha + 1% MSO",60
same,Herbicide injury evaluation 14 days after herbicide treatment,"[6]; Table 4, SEQ ID NO 118 Q, 280 g ai/ha + 1% MSO",65
same,Herbicide injury evaluation 14 days after herbicide treatment,"[6]; Table 4, SEQ ID NO 118 Q, 420 g ai/ha + 1% MSO",70
same,Herbicide injury evaluation 14 days after herbicide treatment,"[6]; Table 4, SEQ ID NO 118 R, 140 g ai/ha + 1% MSO",63
same,Herbicide injury evaluation 14 days after herbicide treatment,"[6]; Table 4, SEQ ID NO 118 R, 280 g ai/ha + 1% MSO",60
same,Herbicide injury evaluation 14 days after herbicide treatment,"[6]; Table 4, SEQ ID NO 118 R, 420 g ai/ha + 1% MSO",35
